The values that follow come from ChEMBL document CHEMBL4495564, “Identification of inhibitors of SARS-Cov2 M-Pro enzymatic activity using a small molecule repurposing screen” (2020).

For assay [1], the target named is Chymotrypsin (Homo sapiens) (UniProt Q99895+P17538+P40313+Q6GPI1). The experiment in a line: Chymotrypsin inhibition percentage at 10 µM by FRET kind of response from peptide substrate. The format is functional.
The target in assay [2] is Replicase polyprotein 1ab (Middle East respiratory syndrome-related coronavirus (isolate UnitedKingdom/H123990006/2012) (Betacoronavirus England 1) (Humancoronavirus EMC)) (UniProt K9N7C7). To be noted: at 10 µM.
Assay [3] concerns the target Replicase polyprotein 1ab (Middle East respiratory syndrome-related coronavirus (isolate UnitedKingdom/H123990006/2012) (Betacoronavirus England 1) (Humancoronavirus EMC), UniProt K9N7C7). Put plainly: biochemical. It counts as functional.

pIC50: −log10 of the molar value. Where a name gives a salt, the structure may show the parent alone.

Replicase polyprotein 1ab, sequence (K9N7C7 3248-3553 limits assumed): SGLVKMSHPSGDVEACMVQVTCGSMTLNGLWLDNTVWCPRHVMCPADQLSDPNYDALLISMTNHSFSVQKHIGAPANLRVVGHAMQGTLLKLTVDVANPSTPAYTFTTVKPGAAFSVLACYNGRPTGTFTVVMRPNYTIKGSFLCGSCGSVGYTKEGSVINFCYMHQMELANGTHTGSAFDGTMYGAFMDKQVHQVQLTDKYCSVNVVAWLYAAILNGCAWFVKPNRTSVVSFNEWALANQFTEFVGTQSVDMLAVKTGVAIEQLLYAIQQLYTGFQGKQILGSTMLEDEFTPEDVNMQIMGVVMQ
Chymotrypsin (Homo sapiens), sequence (Q6GPI1 whole entry, looked up, chain 1 of 4): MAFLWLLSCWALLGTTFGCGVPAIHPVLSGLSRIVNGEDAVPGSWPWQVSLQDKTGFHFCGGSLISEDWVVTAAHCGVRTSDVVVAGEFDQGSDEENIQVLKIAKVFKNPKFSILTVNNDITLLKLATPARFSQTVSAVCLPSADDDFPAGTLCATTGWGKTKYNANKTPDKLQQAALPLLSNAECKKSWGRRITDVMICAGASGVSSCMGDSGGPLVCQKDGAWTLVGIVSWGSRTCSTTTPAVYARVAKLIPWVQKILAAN
Chymotrypsin (Homo sapiens), sequence (P40313 whole entry, looked up, chain 2 of 4): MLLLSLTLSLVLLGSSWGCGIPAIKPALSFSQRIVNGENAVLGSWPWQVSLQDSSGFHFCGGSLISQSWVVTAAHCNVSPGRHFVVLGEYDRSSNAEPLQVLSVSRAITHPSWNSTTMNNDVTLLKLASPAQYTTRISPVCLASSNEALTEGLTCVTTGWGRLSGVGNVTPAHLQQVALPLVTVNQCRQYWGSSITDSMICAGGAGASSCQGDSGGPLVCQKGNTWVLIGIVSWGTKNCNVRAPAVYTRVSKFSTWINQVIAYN
Chymotrypsin (Homo sapiens), sequence (P17538 whole entry, looked up, chain 3 of 4): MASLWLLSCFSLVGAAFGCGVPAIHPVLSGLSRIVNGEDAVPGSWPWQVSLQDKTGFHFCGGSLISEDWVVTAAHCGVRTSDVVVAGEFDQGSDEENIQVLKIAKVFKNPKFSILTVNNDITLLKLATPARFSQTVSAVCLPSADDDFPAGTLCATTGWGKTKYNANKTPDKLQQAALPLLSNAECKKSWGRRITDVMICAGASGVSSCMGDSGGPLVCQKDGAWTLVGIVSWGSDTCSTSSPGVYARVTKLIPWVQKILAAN
Chymotrypsin (Homo sapiens), sequence (Q99895 whole entry, looked up, chain 4 of 4): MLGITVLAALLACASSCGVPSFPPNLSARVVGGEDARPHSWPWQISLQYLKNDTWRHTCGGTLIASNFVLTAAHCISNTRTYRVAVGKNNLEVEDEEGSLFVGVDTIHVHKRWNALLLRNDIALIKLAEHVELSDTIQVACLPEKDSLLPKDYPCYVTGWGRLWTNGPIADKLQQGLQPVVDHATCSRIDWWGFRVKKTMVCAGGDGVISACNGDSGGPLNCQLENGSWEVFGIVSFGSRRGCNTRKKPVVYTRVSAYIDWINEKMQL

The term inhibition denotes the relative decrease from the control value, in per cent. With `O=C(CC1Sc2ncnn2C1=O)Nc1ccc(Br)cc1` (stereo not drawn), the inhibition in assay [1] is 8.42%.

As for `CCCCn1c(NC(=O)c2cccs2)c(C#N)c2nc3ccccc3nc21`, in assay [1], the inhibition was -3.7%.

In general, pIC50 refers to −log10 of the IC50, conventionally taken in molar units. `CC(Cc1ccc(O)c(O)c1)C(C)Cc1ccc(O)c(O)c1` (stereo not drawn) [NORDIHYDROGUAIARETIC ACID]: the inhibition in assay [2] came out at 0%. Besides, the pIC50 in assay [3] was < 5.00.

As to `CN(C)C(=S)SC(=S)N(C)C` [BIS(DIMETHYLAMINETHIOCARBONYL)MONOSULFIDE], the inhibition in assay [2] came to 0%. Moreover, the pIC50 in assay [3] was < 5.00.

On to `COc1cccc(C(=O)CCN[C@@H](C)[C@H](O)c2ccccc2)c1`, for which the inhibition in assay [2] is 19%. Also, the pIC50 in assay [3] is < 5.00.

On to `O=C(O)CCCCCCCCCCCCCCc1ccc(I)cc1` [IOCANLIDIC ACID], for which the inhibition in assay [2] is 0%. Moreover, the pIC50 in assay [3] is < 5.00.

For the compound `COc1ccc2[nH]c([S+]([O-])Cc3ncc(C)c(OC)c3C)nc2n1` (stereo not drawn) [TENATOPRAZOLE], the inhibition in assay [2] is 0%. The pIC50 in assay [3] is < 5.00.

Regarding `Sc1nc2ccccc2s1` [2-MERCAPTOBENZOTHIAZOLE], in assay [2], the inhibition turned out to be 0%. For the same compound, the pIC50 in assay [3] was < 5.00.

Regarding `CC(C)N(CCC(=O)c1ccc2ccccc2c1)Cc1ccccc1`, in assay [3], the pIC50 is 5.09.

As to `Oc1cc2c(cc1C(c1ccc(C(F)(F)F)cc1)N1CCOCC1)OCO2` (stereo not drawn), in assay [1], the inhibition was determined as 7.04%.

For the compound `O=C(O)c1ccc(SSc2ccc(C(=O)O)cn2)nc1`, in assay [2], the inhibition is 8%. Further, the pIC50 in assay [3] is < 5.00.

Turning to `c1ccc2sc(SSc3nc4ccccc4s3)nc2c1`, in assay [1], the inhibition is 5.04%.

`C=CC(=O)c1ccc2ccccc2c1`: in assay [2], the inhibition was determined as 26%. The pIC50 in assay [3] is < 5.00.

Consider `O=C1c2c(O)cc(O)cc2O[C@H](c2cc(O)c(O)c(O)c2)[C@H]1O` [AMPELOPSIN], for which the inhibition in assay [2] stood at 18%. Further, in assay [3], the pIC50 is < 5.00.

For the compound `c1ccc2sc(SNC3CCCCC3)nc2c1`, the inhibition in assay [2] was 0%. In assay [3], the pIC50 is < 5.00.

Consider `O=c1cc(-c2ccc(O)cc2)oc2cc(O)cc(O)c12` [APIGENIN], for which, in assay [2], the inhibition worked out at 17%. Moreover, in assay [3], the pIC50 was < 5.00.

For THIMEROSAL [listing 1 of 2 here], the inhibition in assay [2] stood at 46%.

In turn, `[O-][S+](c1ccccc1)c1ccc2nnnn2n1` (stereo not drawn) gave a pIC50 in assay [3] of 5.00.

For the compound `Oc1cc2c(cc1O)[C@H]1c3ccccc3CN[C@@H]1CC2` [DIHYDREXIDINE HYDROCHLORIDE], the inhibition in assay [2] was 19%. Besides, the pIC50 in assay [3] is < 5.00.

For `CNC(=O)ON(C(C)=O)C(=O)NC` [CARACEMIDE], the inhibition in assay [2] is 8%. Besides, the pIC50 in assay [3] is < 5.00.

For the compound `Oc1ccc2ccccc2c1SSc1c(O)ccc2ccccc12`, in assay [2], the inhibition came out at 6%. Further, the pIC50 in assay [3] was < 5.00.

As to `Cc1cc(C)cc(N2C(=O)CC(Sc3nc[nH]n3)C2=O)c1` (stereo not drawn), the inhibition in assay [1] is 2.86%.

For `Nc1nnc(Sc2ncc([N+](=O)[O-])s2)s1`, the inhibition in assay [2] is 45%. Besides, the pIC50 in assay [3] was < 5.00.

Turning to `C[C@H]1COc2c(N3CCN(C)CC3)c(F)cc3c(=O)c(C(=O)O)cn1c23` [LEVOFLOXACIN], in assay [1], the inhibition came to 1.29%. The pIC50 in assay [3] is 5.12.

Regarding `Oc1c(I)cc(I)c(O)c1I`, the inhibition in assay [2] is 0%. For the same compound, the pIC50 in assay [3] was < 5.00.

As to THIMEROSAL [listing 2 of 2 here], in assay [3], the pIC50 is < 5.00.

With `CC(C)(C)c1ccc(S(=O)(=O)/C=C/C#N)cc1` [BAY-11-7085], the inhibition in assay [2] stood at 0%. Also, the pIC50 in assay [3] is < 5.00.

For the compound `COCCCOc1ccnc(C[S+]([O-])c2nc3ccccc3[nH]2)c1C` (stereo not drawn) [RABEPRAZOLE SODIUM], the inhibition in assay [2] was 46%. The pIC50 in assay [3] was < 5.00.

Turning to `O=C1C=CC(=O)C2=C1C1c3ccccc3C2c2ccccc21`, in assay [2], the inhibition was found to be 45%. Further, in assay [3], the pIC50 is < 5.00.

With `CC[C@H](CO)Nc1nc(NCc2ccc(-c3ccccn3)cc2)c2ncn(C(C)C)c2n1`, the inhibition in assay [2] is 4%. In assay [3], the pIC50 was < 5.00.

Consider `CN(C)C(=S)SSC(=S)N(C)C` [THIRAM], for which, in assay [2], the inhibition amounted to 48%. The pIC50 in assay [3] is < 5.00.

Regarding ACRIFLAVINE HYDROCHLORIDE, the inhibition in assay [1] is 22%.

Turning to `CCN1CCN(C(c2ccc(C(F)(F)F)cc2)c2ccc3cccnc3c2O)CC1` (stereo not drawn), the inhibition in assay [1] is 3.72%.

Take `CN1CC[C@@]2(C)c3cc(O)ccc3N(C)[C@@H]12`: in assay [2], the inhibition came out at 41%. Also, the pIC50 in assay [3] is < 5.00.

Regarding `O=C(CCl)c1ccccc1`, the inhibition in assay [1] amounted to 7.75%.

Take `COc1cc(C(=S)N2CCOCC2)ccc1O` [VANITIOLIDE]: the inhibition in assay [2] was determined as 0%. Besides, the pIC50 in assay [3] is < 5.00.

As to `CN(C)CCNc1nc2cc(O)ccc2c2c1C(=O)c1ccccc1-2`, the inhibition in assay [2] was 0%. In assay [3], the pIC50 was < 5.00.

`Cc1ccc(C)c(-n2sc3cc(F)ccc3c2=O)c1`: the inhibition in assay [1] was -0.52%.

Regarding `O=[N+]([O-])c1ccc(Sc2cccc[n+]2[O-])c2nonc12`, in assay [1], the inhibition came to 4.87%.

For the compound `CCC(=O)OCN1C(=O)C=CC1=O`, the inhibition in assay [2] turned out to be 0%. In assay [3], the pIC50 was < 5.00.

As to `O=C(/C=C/c1ccc(O)c(O)c1)O[C@H](Cc1ccc(O)c(O)c1)C(=O)O` [ROSMARINIC ACID], the inhibition in assay [2] came to 19%. Also, in assay [3], the pIC50 is < 5.00.

With `Nc1ccc(O)c2ncccc12`, the inhibition in assay [1] amounted to 4.98%.

For the compound `Cn1sc(=O)n(Cc2ccccc2)c1=O`, the inhibition in assay [1] turned out to be 4.03%.

As for `O=c1cc(-c2ccccc2)oc2cc(O)c(O)c(O)c12` [BAICALEIN], in assay [2], the inhibition came out at 47%. In assay [3], the pIC50 was < 5.00.

On to `Oc1cc(O)cc(/C=C/c2ccc(O)c(O)c2)c1` [PICEATANNOL], for which the inhibition in assay [2] worked out at 24%. The pIC50 in assay [3] is < 5.00.

For `COC(=O)CC[C@H](NC(=O)[C@H](CC(=O)OC)NC(=O)OCc1ccccc1)C(=O)N[C@H](C(=O)N[C@@H](CC(=O)OC)C(=O)CF)C(C)C`, in assay [1], the inhibition was 11.2%.

Take `Nc1ccc(S(=O)(=O)Nc2ncccn2)cc1` [SULFADIAZINE, SILVER]: in assay [3] (tested as the Ag salt or complex), the pIC50 was < 5.00.

With `Oc1cc2c(cc1O)[C@@H]1c3ccc(O)c(O)c3OC[C@]1(O)C2` [HEMATOXYLIN], the inhibition in assay [2] was determined as 5%. Also, the pIC50 in assay [3] was < 5.00.

`O=[N+]([O-])c1cnc(Sc2nnc(O)n2-c2ccc3c(c2)OCCO3)s1`: the pIC50 in assay [3] is 5.42.

Regarding `CN1CCc2cccc3c2[C@H]1Cc1ccc(O)c(O)c1-3` [APOMORPHINE HYDROCHLORIDE], the inhibition in assay [2] was 6%. In addition, in assay [3], the pIC50 was < 5.00.

`C[n+]1cc2c3c(ccc2c2ccc4cc5c(cc4c21)OCO5)OCO3` [SANGUINARIUM CHLORIDE]: the inhibition in assay [2] came to 32%. Further, the pIC50 in assay [3] was < 5.00.

`CCC(C)SSc1ncc[nH]1` (stereo not drawn) [PX-12] gave a negative-log IC50 (pIC50) in assay [3] of 5.12.

As for `O=C1C2CC=CCC2C(=O)N1SC(Cl)(Cl)Cl` (stereo not drawn) [CAPTAN], in assay [2], the inhibition came out at 5%. Besides, the pIC50 in assay [3] was < 5.00.

As for `O=c1c2ccccc2[se]n1-c1ccccc1` [EBSELEN], in assay [2], the inhibition was determined as 14%. The pIC50 in assay [3] is < 5.00.

Take `O=[N+]([O-])C(Br)(CO)CO` [BRONOPOL]: the inhibition in assay [2] came to 14%. Besides, the pIC50 in assay [3] was < 5.00.

As for `O=C(c1cc(O)c(O)c(O)c1)c1ccc(O)c(O)c1O` [EXIFONE], in assay [2], the inhibition turned out to be 0%. Moreover, the pIC50 in assay [3] was < 5.00.

With `CCCCCCNC(=O)n1cc(F)c(=O)[nH]c1=O`, the inhibition in assay [1] worked out at 14%.
